The experiment concerns the target T1, Protein tyrosine phosphatase 1B (PTP1B) (Homo sapiens, UniProt P18031).
T1 construct: gene PTPN1; recombinant PTP1B
T1 sequence (P18031 1-435): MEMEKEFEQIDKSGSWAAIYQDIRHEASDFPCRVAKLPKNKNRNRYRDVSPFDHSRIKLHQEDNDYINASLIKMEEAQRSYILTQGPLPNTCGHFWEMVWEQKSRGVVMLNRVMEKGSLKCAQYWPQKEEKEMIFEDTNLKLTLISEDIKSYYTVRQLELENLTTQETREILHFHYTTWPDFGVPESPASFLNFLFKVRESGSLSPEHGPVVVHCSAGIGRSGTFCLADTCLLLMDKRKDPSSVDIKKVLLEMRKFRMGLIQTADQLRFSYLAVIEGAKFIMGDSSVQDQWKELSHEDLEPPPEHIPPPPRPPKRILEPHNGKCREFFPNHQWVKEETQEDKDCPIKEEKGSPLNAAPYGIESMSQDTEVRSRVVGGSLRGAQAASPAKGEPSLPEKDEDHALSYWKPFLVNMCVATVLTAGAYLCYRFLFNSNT
Nature of the experiment: recombinant PTP1B activity assay with pNPP, absorbance at […] nm, […] min incubation. Format: biochemical.

For orientation: IC50 means the concentration needed to halve the response being measured. On to `CC/C=C\C/C=C\C/C=C\C/C=C\C/C=C\C/C=C\CCC(=O)O` [DHA, docosahexaenoic acid], for which the IC50 turned out to be 174 ± 25.5 µM.

The record behind these values is article PMC6893741, “Docosahexaenoic Acid Inhibits PTP1B Phosphatase and the Viability of MCF-7 Breast Cancer Cells” (Nutrients, 2019).
